ChEMBL document CHEMBL3507680, “University of Dundee, Gates Library screen for HepG2 cell viability”

assay: Human HepG2 cell viability assay in 384 well format; assay type: toxicity, cell-based; parameters: dose 125 nL, time 70.5 hour; cytotoxicity at 70.5 h: concentration not given beside the values; settings: HepG2 cells, read-out: Inhibition

SMILES	cytotoxicity at 70.5 h [%]
COCCN1CCN(C)C2(CCN(C(=O)c3ccnnc3)CC2)C1=O	-0.603
O=C(NCCc1ccccn1)NC1CCN(c2ncccn2)CC1	-8
Cc1ccc2c(c1)CN(C(=O)c1cnc(C)cn1)C(CN(C)C)CO2 (stereo not given)	14.1
Cc1ccc(CNC(=O)N(C)Cc2cnn(C)c2)s1	-1.07
O=C(CN1CCCNC1=O)Nc1ccccc1C(=O)C1CCCC1	-0.928
Cc1nc(CN2Cc3cn(C)nc3C(COCC3CC3)C2)cs1 (stereo not given)	14.1
CNC(=O)[C@H]1C[C@@H]2CN(C(=O)c3ccco3)C[C@@H]2N1S(C)(=O)=O	-7.68
O=C(Cc1cccnc1)NCCS(=O)(=O)c1ccccc1F	-7.32
O=C(CCc1ccc(Cl)s1)N1CCC(N2CCNC2=O)CC1	-3.74
CCNS(=O)(=O)c1cnccc1N1CCN(CCO)CC1	4.82
CN1CCc2c(C#N)c(NCc3ccncc3)n3cnnc3c2C1	-14.7
Cc1nc(C)n(CC2CCCN2CC(=O)NCCC#N)n1 (stereo not given)	-19.9
O=C(NCCn1nc(C2CCNC2)c2cccnc21)c1ccccc1 (stereo not given)	-4.57
Cc1cccc(-c2nccn2C2CC(=O)N(C(C)C)C2)n1 (stereo not given)	0.181
CCCS(=O)(=O)NC(=O)c1cc(C)n(-c2ccccc2)n1	7.41
Cc1cccc2[nH]cc(CC(=O)N3CCC(Nc4cccnn4)CC3)c12	0.978
Cc1ccc(NC2CCN(C(=O)CCCc3cccs3)CC2)nn1	-2.88
Cc1cnn(C2CN(CC(O)c3ccc4c(c3)OCCO4)C2)c1 (stereo not given)	-3.93
OCc1csc(N2CCCN(Cc3ccc(F)cc3)CC2)n1	2.55
COCC(=O)NCCCn1ncc2c(C)cccc21	-5.2
c1cc(CN2CC[C@@H]3CN(c4cnccn4)C[C@@H]3C2)ccn1	-3.4
Cc1n[nH]c2c1C(c1ccc(F)cc1)SCC(=O)N2 (stereo not given)	-4.92
CC(C)NC(=O)CC1COC2(CCN(Cc3cccnc3)CC2)C1 (stereo not given)	-12.2

SMILES	cytotoxicity at 70.5 h [%]
O=C(O)CSc1nnc(-c2cn[nH]c2)n1-c1ccccc1Cl	17.6
Cc1ccc(S(=O)(=O)Nc2ccc(-n3ccnc3C)nc2)cc1N(C)C	-2.22
Cc1nc(C)c(C(=O)N2CCc3nnc(C4CCCCN4C)n3CC2)o1 (stereo not given)	0.605
CC1(c2ccccc2)CCC(=O)N(CCCN2CCOCC2)C1 (stereo not given)	-8.26
Cc1cc(C)n(CC(=O)NC2CCCCNC2=O)n1 (stereo not given)	-6.78
FC(F)(F)c1cc(C2CCCN(c3cnccn3)C2)n2ccnc2n1 (stereo not given)	-11.9
O=C(c1cscn1)N1CC[C@H]2C[C@@H](c3ccncn3)O[C@@H]2C1	7.77
O=C(NCc1cnn2cccnc12)C1CC(=O)N(Cc2cccnc2)C1 (stereo not given)	30.6
CSc1ccccc1C(=O)NCCC(O)c1ccco1 (stereo not given)	16.9
CS(=O)(=O)N1CCCC12CCN(Cc1nccs1)C2 (stereo not given)	-1.64
Cc1nc(CC(=O)N2c3ccccc3OCC2C)cs1 (stereo not given)	-9.24
Cc1cc(NC(=O)CNC(C)(C)c2ccc3c(c2)OCCO3)no1	2.35
Cc1cccc(CN2C(=O)C[C@H]3[C@@H]2CCN3Cc2ccco2)n1	-11.7
Cn1cc(C2NC3(CCCC3)C(=O)N2CC2CC2)c(=O)n(C)c1=O (stereo not given)	-5.99
O=C(NCC(CO)Cc1ccc(Cl)cc1)c1ccncc1Cl (stereo not given)	-1.15
CCN(Cc1nc(COC)no1)Cc1cc2ccc(F)cc2[nH]c1=O	-12.1
CC(=O)Nc1ccc(Cl)c(C(=O)N(C)C(C)c2nccs2)c1 (stereo not given)	-3.55
CC(C)c1nn(C)c(N(C)C)c1CNCCC(=O)NC1CCCCC1	37.6
CC(C)C(=O)NCc1cc(Br)ccc1F	-9.54
CCNc1cc2c(nn1)CCN(C(=O)C1Cc3ccccc3O1)C2 (stereo not given)	-12.9
CN(C)CC(O)Cn1cc(NCc2ccc(Br)cc2)cn1 (stereo not given)	-2.01
O=C(CSc1ccc2c(c1)OCCO2)NS(=O)(=O)C1CCCCC1	0.938
Cn1cc(NS(=O)(=O)CC2CCCCO2)cn1 (stereo not given)	-8.18

SMILES	cytotoxicity at 70.5 h [%]
O=C1[C@H]2CN(c3ncccn3)C[C@H]2CN1CCN1CCCC1	-47.2
CC(C)c1ccc(-n2ncc(C(=O)NCC3COC(C)(C)O3)c2N)cc1 (stereo not given)	26.2
C1CC(CN2C[C@@H]3C[C@@H](c4nnc(C5CC5)o4)O[C@@H]3C2)C1	27.7
O=C(O)c1cnc2c(Br)cccc2c1O	-5.88
Cc1cnn(CCCN2C(=O)CCc3ccccc32)c1	11.4
COc1ccc(CN2CCCC(Nc3cccc(F)c3)C2)cc1O (stereo not given)	-2.89
FC(F)(F)c1ccc2[nH]c([C@H]3CCNC3)nc2c1	-2.06
CCOc1ncccc1CNc1cc(COC)ncn1	1.28
COc1cc(N2CC[C@H]3OCC[C@@]3(COc3nccc(C)n3)C2)ncn1	-17.3
NC(=O)C1CCCN(c2ccc(CNC(=O)c3csnn3)cc2)C1 (stereo not given)	-6.98
CC1CCCN(C(=O)CCc2cccnc2)C1 (stereo not given)	-3.28
Cc1ccc(CC2CCCN(S(C)(=O)=O)C2)nc1 (stereo not given)	-9.35
CCc1nccn1CCC(=O)N1CCCC1c1cncc(NC)n1 (stereo not given)	5.43
COC(=O)CCCC(=O)N(C)CC1Cc2ccccc2CN1C (stereo not given)	-8.82
Cc1cccc(N2CCOC(C(=O)O)C2)c1 (stereo not given)	-6.1
Cc1nc(C)n(CC2CCCCN2Cc2nc(-c3ccco3)no2)n1 (stereo not given)	-5.26
N[C@H]1CN(C(=O)Cc2ccc(Cl)c(Cl)c2)C[C@@H]1C1CC1	13.6
CC(=O)c1nn(-c2ccccc2)c(C)c1C(C)=O	-8.03
CCN(C)S(=O)(=O)c1c(F)cc(NC(C)=O)cc1F	-2.83
CCOc1ncccc1Cn1cc(-c2ccc(CO)o2)nn1	-15.3
COCC1CC2(CCN(C(=O)c3occc3C)CC2)CN1C(C)C (stereo not given)	20.9
CS(=O)(=O)N1CCN(CC2CC2)c2ncccc2C1	-9.41
CCc1nccn1CC(=O)N1C[C@H]2CC[C@@H]1CN(c1ncccn1)C2	-0.942

SMILES	cytotoxicity at 70.5 h [%]
Cc1nnc2n1CCN(Cc1ncc(-c3ccc(F)cc3)o1)C2	-1.84
c1ccc(-c2nnc(C3CCCN(CC4CCCCC4)C3)o2)nc1 (stereo not given)	-7.93
COCC(=O)NC(c1ccccc1)c1ccc2c(c1)CCCO2 (stereo not given)	-16.4
Cn1cc(CN2CCCN(C(=O)c3cc(Cl)cn3C)CC2)cn1	38.5
CCn1ncc(Nc2[nH]cnc3nncc2-3)c1C	-3.49
CN1C(=O)CC2(CCNCC2)c2ccccc21	6.26
CC(O)(CCc1ccccc1)CNC(=O)c1cccs1 (stereo not given)	-3.94
CC(=O)NCc1cncc(C2CCCN2C2CCOCC2)n1 (stereo not given)	-5.7
COCC1CN(Cc2ccc(F)cc2)Cc2nnn(CC3CC3)c21 (stereo not given)	0.526
CNc1cc(C2CN(C(=O)c3cscn3)CCO2)nc(C)n1 (stereo not given)	26
Cn1cc(-c2cc(C(F)(F)F)n(CCCN)n2)cn1	20
CCN(Cc1ccc2cccc(O)c2n1)CC1CCCO1 (stereo not given)	12.5
Cc1nc2c(c(NCc3cnc4c(c3)CCC4)n1)CNC2	-6.06
Cc1nn(C)cc1-c1cc(C(=O)NCC(C)(C)c2cccc(F)c2)n[nH]1	1.66
Cc1ccc(C(CNCc2cccnc2)N2CCOCC2)s1 (stereo not given)	-10.2
Cc1nc[nH]c1CN1CCCC(CNC(=O)c2ccncn2)C1 (stereo not given)	-7.41
Cc1ccsc1[C@@H]1CCN(C(=O)CCC(=O)N2CCCCCC2)C[C@H]1O	0.789
Cc1cnn(C2CCCN(C(=O)CN(C)c3cnccn3)C2)c1 (stereo not given)	-2.8
O=C(O)C1c2nc[nH]c2CCN1Cc1ccccc1-c1ccccc1 (stereo not given)	-3.54
CCc1ccc(CN2CC[C@@H]3NC(=O)CC[C@@H]32)o1	27
CC(C)C(=O)NC1CCCN(C(=O)c2ccc(O)c(Cl)c2)C1 (stereo not given)	-9.92
O=C(NCc1ccc(N2CCCC2)nc1)N1CCc2sccc2C1	-0.866
CC(=O)N1CCO[C@@H]2CN(C(=O)NCc3cccnc3)CC[C@@H]2C1	-2.08

SMILES	cytotoxicity at 70.5 h [%]
COc1ccc(C2=CCN(C(=O)C3CCCN(C(C)=O)C3)CC2)cc1 (stereo not given)	-1.69
O=C(O)Cc1cn2cc(C(F)(F)F)ccc2n1	-10.8
CCn1ncc(CN2CCc3c(nc(-c4cccnc4)[nH]c3=O)C2)c1C	-18.3
Cn1cc(CCNCC2CNc3ccnn3C2)cn1 (stereo not given)	1.67
Cc1cccc(-c2nnc(C(C)NCCn3cc(C)cn3)o2)c1 (stereo not given)	-7.5
O=C(Nc1ccccc1OCCc1ccccn1)NC1CCOCC1	18.2
O=C(c1cc(=O)n(-c2ccccc2)[nH]1)N1CCOC(C(F)(F)F)C1 (stereo not given)	5.57
c1ccc(O[C@H]2CO[C@@]3(CCCN(Cc4nccs4)C3)C2)nc1	42.1
CC[C@@H]1N(Cc2cccnc2)CCC[C@]12CCC(=O)N2C	-12.1
CCc1ncnc(N2CCOCC2C(N)=O)c1F (stereo not given)	-5.74
Cc1cc(C)nc(C2CCCN2S(=O)(=O)N2CCOCC2)n1 (stereo not given)	-4.98
CN1CCNCC(Cc2cnc3ccccc3c2)C1 (stereo not given)	-3.02
Cc1cccc(CN2CCC3(CCN(Cc4ccccn4)C3)C2=O)c1 (stereo not given)	27.9
c1cc(CN2CCC3(CC2)CC(N2CCCC2)CO3)co1 (stereo not given)	-5.63
O=C1CCc2cc(-c3csc(CCN4CCOC4=O)n3)ccc2N1	2.18
COc1c(C2CCCN2CC(=O)Nc2ccncc2)c(C)nn1C (stereo not given)	6.03
CC(C(=O)N1CCCN(Cc2cnn(C(C)C)c2)CC1)n1ccnc1 (stereo not given)	23.5
CCN(CC)Cc1cc(C(=O)N2CCC3(CCN(C)CC3)C2)c(C)o1	-14.5
Cc1cccc(CN2CCCC(O)(CNCc3ncccc3C)C2=O)c1 (stereo not given)	-7.55
Cn1cc(CN2CCOC3(CCCN(C(=O)c4ccco4)C3)C2)cn1 (stereo not given)	-6.59
CC(Oc1ccc2c(c1)OCO2)C(=O)N1CCC(c2ncc[nH]2)CC1 (stereo not given)	-8.64
CC(=O)N1CCC(c2[nH]ncc2S(C)(=O)=O)CC1	-5.52
c1cnc(Nc2ccc(C3CCCCN3)cn2)cn1 (stereo not given)	-5.51
